# Source: PMC8561395 (Biochemistry, 2021)
# Like-named read-outs stand apart in the source and are kept apart here.
# Columns and labels:
# SsoPTP [1] = target: T1, SsoPTP (Saccharolobus solfataricus, UniProt Q97VZ7); experiment: Inhibition of SsoPTP activity by buffers, pNPP as substrate
# T1 sequence (Q97VZ7 1-161): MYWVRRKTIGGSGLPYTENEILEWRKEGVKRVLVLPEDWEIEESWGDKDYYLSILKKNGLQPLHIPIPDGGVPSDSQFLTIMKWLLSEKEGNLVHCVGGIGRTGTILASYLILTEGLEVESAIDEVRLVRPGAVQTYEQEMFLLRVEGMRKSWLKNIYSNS
# [2] = tested on: bovine low molecular weight PTP; conditions: more strongly than observed for SsoPTP; cited from earlier work
# SsoPTP [3] = target: T1, SsoPTP; experiment: Steady-state Michaelis-Menten kinetics with pNPP; type: biochemical, Sulfolobus solfataricus; conditions: read-out: KM for pNPP
Inhibition of SsoPTP (in words) (SsoPTP [1]; pNPP substrate),Compound,Ki (SsoPTP [1]) [mM],further results
no inhibitory effect,CC(=O)O [Acetic acid],,
,O=S(=O)(O)CCCNC1CCCCC1 [CAPS],,"Ki (SsoPTP [1]; pNPP substrate, 100 mM sodium acetate buffer pH 5.0, inhibitor 5–400 mM): 54 ± 11 mM"
,O=C(O)CC(O)(CC(=O)O)C(=O)O [Citric acid],8 ± 1,
,O=S(=O)(O)CCN1CCN(CCO)CC1 [HEPES],44 ± 8,Strength of inhibition of bovine low molecular weight PTP relative to SsoPTP [2]: about 10 fold
did not show measurable inhibition,O=S(=O)(O)CCCN1CCOCC1 [MOPS],,
,"O=[N+]([O-])c1ccc(OP(=O)(O)O)cc1 [pNPP, p-nitrophenyl phosphate]",,Km (SsoPTP [3]): 3.4 mM
